Measurements: ChEMBL document CHEMBL6071165, “Design, synthesis and biological evaluation of plant-derived miliusol derivatives achieve TNBC profound regression in vivo” (Eur J Med Chem, 2024)
Active and inactive are the calls of the source. No cut-off for these calls is given here.

Experiments:
BT-549 [1] = experiment: Inhibition of cell migration in human BT-549 cells assessed as increase in E-cadherin level by incubated for 24 hrs by Western blot analysis; type: functional, cell-based; details: dose 0.5-2 µM
MDA-MB-231 [2] = experiment: Antiproliferative activity against human MDA-MB-231 cells xenografted in female BALB/c mouse model assessed as fold change in cleavage of caspase-3 level at 5 mg/kg administered subcutaneously incubated for 24 hrs by Western blot analysis (reference value: 1.00%); type: functional; details: route sc
MDA-MB-231 [3] = experiment: Induction of apoptosis in human MDA-MB-231 cells assessed as necrotic cells at 2 uM incubated for 24 hrs by Annexin V-PI staining based flow cytometric analysis (reference value: 1.29%); type: functional
BT-549 [4] = experiment: Induction of apoptosis in human BT-549 cells assessed as upregulation of Bax expression at 0.5 to 2 uM incubated for 24 hrs by Western blot analysis; type: functional, cell-based; details: dose 0.5-2 µM
BT-549 [5] = experiment: Antiproliferative activity against human BT-549 cells xenografted in female BALB/c mouse model assessed as fold change in upregulation of BAX protein level at 5 mg/kg administered subcutaneously incubated for 24 hrs by Western blot analysis (reference value: 1.00%); type: functional; details: route sc
MDA-MB-231 [6] = experiment: Induction of ER stress in human MDA-MB-231 cells assessed as activation of Xbp-1s protein level incubated for 24 hrs by Western blot analysis; type: functional, cell-based; details: dose 0.5-2 µM
BT-549 [7] = experiment: Inhibition of colony formation in human BT-549 cells incubated for 7 days by Crystal violet staining based analysis; type: functional, cell-based; details: dose 0.5-2 µM, time 7.0 day
BT-549 [8] = experiment: Induction of ER stress in human BT-549 cells assessed as activation of Xbp-1s protein level incubated for 24 hrs by Western blot analysis; type: functional, cell-based; details: dose 0.5-2 µM
MDA-MB-231 [9] = experiment: Induction of apoptosis in human MDA-MB-231 cells assessed as necrotic cells at 0.5 uM incubated for 24 hrs by Annexin V-PI staining based flow cytometric analysis (reference value: 1.29%); type: functional
MDA-MB-231 [10] = experiment: Inhibition of cell proliferation in human MDA-MB-231 cells assessed as reduction in Ki-67 expression at 0.5 to 2 uM incubated for 24 hrs by DAPI staining based immunofluorescence analysis; type: functional; details: dose 0.5-2 µM
BT-549 [11] = experiment: Inhibition of tumor sphere formation in human BT-549 cells at 1 uM incubated for 24 hrs by microscopic analysis; type: functional, cell-based
MDA-MB-231 [12] = experiment: Antiproliferative activity against human MDA-MB-231 cells xenografted in female BALB/c mouse model assessed as fold change in upregulation of BAX protein level at 10 mg/kg administered subcutaneously incubated for 24 hrs by Western blot analysis (reference value: 1.00%); type: functional; details: route sc
[13] = (§1) Selectivity ratio of IC50 for antiproliferative activity against human MCF-10A cells assessed as inhibition of cell proliferation incubated for 24 hrs by MTT assay to IC50 for antiproliferative activity against human MDA-MB-231 cells assessed as inhibition of cell proliferation incubated for 24 hrs by MTT assay; type: cell-based; details: MCF-10A cells versus MDA-MB-231 cells, read-out: Ratio IC50
BT-549 [14] = experiment: Downregulation of LDHA expression in human BT-549 cells at 1 uM incubated for 24 hrs by DAPI staining based immunofluorescence analysis; type: functional, cell-based
BT-549 [15] = experiment: Antiproliferative activity against human BT-549 cells xenografted in female BALB/c mouse model assessed as fold change in cleavage of caspase-3 level at 20 mg/kg administered subcutaneously incubated for 24 hrs by Western blot analysis (reference value: 1.00%); type: functional; details: route sc
[16] = as §1, with “BT-549” for “MDA-MB-231”; type: toxicity, cell-based; details: MCF-10A cells versus BT-549 cells, read-out: Ratio IC50
MDA-MB-231 [17] = experiment: Induction of ER stress in human MDA-MB-231 cells assessed as appearance of large number of vacuoles at 1 uM incubated for 24 hrs by TEM analysis; type: functional, cell-based
BT-549 [18] = experiment: Antiproliferative activity against human BT-549 cells xenografted in female BALB/c mouse model assessed as fold change in cleavage of caspase-3 level at 5 mg/kg administered subcutaneously incubated for 24 hrs by Western blot analysis (reference value: 1.00%); type: functional; details: route sc
BT-549 [19] = experiment: Antiproliferative activity against human BT-549 cells xenografted in female BALB/c mouse model assessed as fold change in downregulation of MMP-2 protein level at 20 mg/kg administered subcutaneously incubated for 24 hrs by Western blot analysis (reference value: 1.00%); type: functional; details: route sc
MDA-MB-231 [20] = experiment: Induction of apoptosis in human MDA-MB-231 cells assessed as late apoptotic cells at 2 uM incubated for 24 hrs by Annexin V-PI staining based flow cytometric analysis (reference value: 1.83%); type: functional
MDA-MB-231 [21] = experiment: Induction of apoptosis in human MDA-MB-231 cells assessed as upregulation of cleavage of caspase-8 expression at 0.5 to 2 uM incubated for 24 hrs by Western blot analysis; type: functional, cell-based; details: dose 0.5-2 µM
MDA-MB-231 [22] = experiment: Inhibition of cell migration in human MDA-MB-231 assessed as reduction in wound healing ability at 0 to 2 uM incubated for 48 hrs by Wound healing assay; type: functional, cell-based; details: dose 0-2 µM
[23] = Toxicity in female BALB/c mouse xenografted with human MDA-MB-231 cells assessed as effect on pathological changes in heart at 5 to 20 mg/kg, sc by H and E staining based analysis; type: organism-based; details: in vivo, dose 5-20 mg/kg
BT-549 [24] = experiment: Antitumor activity against human BT-549 cells xenografted in female BALB/c mouse model assessed as reduction of proliferation rate of tumor at 5 to 20 mg/kg administered subcutaneously and measured every day; type: functional, organism-based; details: dose 5-20 mg/kg, route sc
BT-549 [25] = experiment: Antiproliferative activity against human BT-549 cells xenografted in female BALB/c mouse model assessed as fold change in downregulation of MMP-2 protein level at 5 mg/kg administered subcutaneously incubated for 24 hrs by Western blot analysis (reference value: 1.00%); type: functional; details: route sc
BT-549 [26] = experiment: Antiproliferative activity against human BT-549 cells xenografted in female BALB/c mouse model assessed as fold change in inhibition of PKM2 expression at 20 mg/kg administered subcutaneously incubated for 24 hrs by Western blot analysis (reference value: 1.05%); type: functional; details: route sc
[27] = Toxicity in female BALB/c mouse xenografted with human BT-549 cells assessed as effect on pathological changes in lung at 5 to 20 mg/kg, sc by H and E staining based analysis; type: organism-based; details: in vivo, dose 5-20 mg/kg
BT-549 [28] = experiment: Induction of apoptosis in human BT-549 cells assessed as upregulation of cleavage of caspase-9 expression at 0.5 to 2 uM incubated for 24 hrs by Western blot analysis; type: functional, cell-based; details: dose 0.5-2 µM
BT-549 [29] = experiment: Antiproliferative activity against human BT-549 cells xenografted in female BALB/c mouse model assessed as inhibition of Ki-67 expression at 5 to 20 mg/kg administered subcutaneously by immunohistochemical staining based microscopic analysis; type: functional, organism-based; details: dose 5-20 mg/kg, route sc
BT-549 [30] = experiment: Antiproliferative activity against human BT-549 cells xenografted in female BALB/c mouse model assessed as fold change in inhibition of PKM2 expression at 10 mg/kg administered subcutaneously incubated for 24 hrs by Western blot analysis (reference value: 1.05%); type: functional; details: route sc
MDA-MB-231 [31] = experiment: Inhibition of colony formation in human MDA-MB-231 cells incubated for 7 days by Crystal violet staining based analysis; type: functional, cell-based; details: dose 0.5-2 µM, time 7.0 day
BT-549 [32] = experiment: Induction of apoptosis in human BT-549 cells assessed as viable cells at 2 uM incubated for 24 hrs by Annexin V-PI staining based flow cytometric analysis (reference value: 93.0%); type: functional; details: read-out: Activity

CC(C)=CCC/C(C)=C/[C@H]1OC(=O)CC12C[C@H](OC(=O)Cc1ccc(NC(=O)/C=C/c3ccccc3)cc1)C=CC2=O (some centres not stated)
inhibition (BT-549 [1]): Dose-Dependent Effect | fold change (FC) (MDA-MB-231 [2]): 1.11 | Activity (MDA-MB-231 [3]): 6.53% | Activity (BT-549 [4]): Active | fold change (FC) (BT-549 [5]): 1.4 | Activity (MDA-MB-231 [6]): Active | inhibition (BT-549 [7]): Dose-Dependent Effect | Activity (BT-549 [8]): Active | Activity (MDA-MB-231 [9]): 12.7% | inhibition (MDA-MB-231 [10]): Active | inhibition (BT-549 [11]): Active | fold change (FC) (MDA-MB-231 [12]): 1.13 | selectivity ratio at 24 h [13]: 67.2 | Activity (BT-549 [14]): Active | fold change (FC) (BT-549 [15]): 1.74 | selectivity ratio at 24 h [16]: 57.7 | Activity (MDA-MB-231 [17]): Active | fold change (FC) (BT-549 [18]): 1.64 | fold change (FC) (BT-549 [19]): 0.17 | Activity (MDA-MB-231 [20]): 42.4% | Activity (MDA-MB-231 [21]): Active | inhibition (MDA-MB-231 [22]): Active | Activity [23]: Non-Toxic | Activity (BT-549 [24]): Active | fold change (FC) (BT-549 [25]): 0.99 | fold change (FC) (BT-549 [26]): 0.16 | Activity [27]: Non-Toxic | Activity (BT-549 [28]): Active | Activity (BT-549 [29]): Active | fold change (FC) (BT-549 [30]): 0.76 | inhibition (MDA-MB-231 [31]): Dose-Dependent Effect | viability at 2 µM (BT-549 [32]): 34.8%
